This note sets out measurements from paper PMC4823711, “Allosteric Partial Inhibition of Monomeric Proteases. Sulfated Coumarins Induce Regulation, not just Inhibition, of Thrombin” (Scientific Reports, 2016).

Bounds are passed on as bounds.

One experiment addresses T1, factor XIa (Homo sapiens, UniProt P03951).
T1 construct: antithrombin, factor Xa and factor XIa were from Haematologic Technologies; purchased Haematologic Technologies (Essex Junction, VT); host or cells: human plasma
Description: Chromogenic substrate hydrolysis assay, factor XIa inhibition (S-2366). The format is biochemical. The procedure:
For factor XIa inhibition studies, 85 μL of buffer (50 mM Tris-HCl, 150 mM NaCl, 0.1% PEG 8000, 0.02% Tween 80, pH 7.4) was added to each well, followed by 7 μL of 15.3 nM enzyme and 3 μL of sulfated coumarin (3.75–500 μM final concentration) and incubated for 10 min at 37 °C. After the incubation period, 5 μL of 6.9 mM S-2366 was added to each well simultaneously and allowed to react for 300 sec at 37 °C. For factor Xa assay, 180 μL of buffer (20 mM Tris-HCl, 100 mM NaCl, 2.5 mM CaCl2, 0.1% PEG 8000, 0.02% Tween 80, pH 7.4) was added to each well followed by 5 μL of 43.5 nM enzyme, 10 μL of sulfated coumarin (0.002–250 μM final concentration). After a 10 min incubation, 5 μL of 5 mM Spectrozyme FXa was added to each well simultaneously and allowed to react for 300 seconds at 37 °C. The slopes generated from each experiment were used to calculate the fractional residual activity (Y) at each concentration of the inhibitor, and analyzed using logistic equation 1, in which YM is the maximum efficacy, Y0 is minimum efficacy and HS is the Hill slope.

The target in experiment [1] is T2, fluorescein-labeled (f FPRCK-) thrombin (Homo sapiens, UniProt P00734).
T2 construct: fluorescein-labeled (f FPRCK-) human thrombin; purchased Haematologic Technologies (Essex Junction, VT); host or cells: human plasma
Description: Thermodynamic affinity by fluorescence titration. Type of experiment: binding. The procedure:
Affinity studies were performed in triplicate and conducted using quartz cuvettes. 180 μL of buffer (20 mM Tris-HCl, 100 mM NaCl, 2.5 mM CaCl2, 0.1% PEG 8000, pH 7.4) and 20 μL of 2 μM fluorescein-labeled (f FPRCK-) thrombin were added to the cuvette followed by titration with 1 μL additions of 3g. Fluorescence intensities were monitored by excitation at 490 nm and emission at 525 nm using slit widths of 0.5 mm. The KD of 3g–thrombin complex was calculated using the quadratic binding equation (equation 4) in which ∆F is the change in fluorescence from the formation of the thrombin-ligand complex with each addition of 3g. F0 is the initial fluorescence and ∆FMAX represents the maximum observed change in fluorescence due to thrombin saturation ([Th]0).

The target of experiment [2] is T2, fluorescein-labeled (f FPRCK-) thrombin. Description: Iodide fluorescence quenching of f FPRCK-thrombin (Stern-Volmer). The method, then:
The quenching studies performed were done using quartz cuvettes, as described previously. 180 μL of buffer (20 mM Tris-HCl, 100 mM NaCl, 2.5 mM CaCl2, 0.1% PEG 8000, pH 7.4) and 20 μL of 2 μM fluorescein-labeled (f FPRCK-) human thrombin were added to the cuvette; fluorescent intensity readings were taken at the λEX of 490 nm and λEM of […] at 25 °C. A solution of 10 M NaI was made using buffer as the solvent. For the readings where inhibitor was absent, 1 μL increments of 10 M NaI was added directly to the cuvette after initial readings of the buffer-thrombin solution. NaI was added six times, while recording changes in fluorescent intensity each time, giving a concentration range of […] in the cuvette. For the readings where inhibitor was present, after the initial buffer-thrombin read, 1 μL of 80 μM inhibitor solution was added to the cuvette and mixed. An intensity reading was taken and then the addition of 1 μL increments of 10 M NaI was again performed six times, taking reads between each addition. The experiments were performed in triplicate and averaged. Initial fluorescence (F0) was the intensity reading from either the buffer-thrombin solution in the absence of 3g or following addition of 1 μL of 3g. […]

Another experiment addresses thrombin (Homo sapiens, UniProt P00734). Description: Antithrombin inactivation of thrombin in the presence of sulfated coumarin. Type of experiment: biochemical. Also on record: 6 nM plasma α-thrombin; purchased Haematologic Technologies (Essex Junction, VT); host or cells: human plasma. The method, then:
The effect of 3g on the reaction of thrombin (or factor Xa) with antithrombin was studied under pseudo-first order conditions such that [AT]0 ≫ [T]0. A fixed concentration of 6 nM plasma α-thrombin in 20 mM Tris-HCl buffer, pH 7.2, containing 100 mM NaCl, 2.5 mM CaCl2 and 0.1% PEG 8000 at 25 °C was incubated for 128 min with final concentrations of 0, 75, 225, or 675 nM of 3g following which a fixed concentration of 100 nM of antithrombin was added and the reaction allowed to proceed. […] The initial rate of hydrolysis of the Spectrozymes were monitored from the linear increase in A405. The fractional residual enzyme activity at each time point was calculated from the slope, i.e., thrombin activity, measured at the start of the experiment and fitted by the standard exponential decay equation 6 to calculate the observed pseudo-first order rate constant, kOBS, at each concentration of 3g. The intrinsic second-order rate constant of antithrombin inhibition of thrombin (kINT) was calculated using equation 7 and plotted against the concentration of thrombin–3g complex, obtained from quadratic equation 8, to derive the kINT of antithrombin inhibition of thrombin–3g complex.

T1 sequence (P03951 388-625 limits assumed): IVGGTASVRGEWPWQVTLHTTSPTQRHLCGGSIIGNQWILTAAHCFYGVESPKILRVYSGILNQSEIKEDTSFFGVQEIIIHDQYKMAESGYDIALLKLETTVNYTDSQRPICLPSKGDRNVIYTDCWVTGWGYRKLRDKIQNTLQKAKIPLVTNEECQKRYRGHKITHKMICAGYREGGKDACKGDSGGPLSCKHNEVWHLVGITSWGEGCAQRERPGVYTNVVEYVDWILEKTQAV
T1 sequence (P03951 19-387 limits assumed): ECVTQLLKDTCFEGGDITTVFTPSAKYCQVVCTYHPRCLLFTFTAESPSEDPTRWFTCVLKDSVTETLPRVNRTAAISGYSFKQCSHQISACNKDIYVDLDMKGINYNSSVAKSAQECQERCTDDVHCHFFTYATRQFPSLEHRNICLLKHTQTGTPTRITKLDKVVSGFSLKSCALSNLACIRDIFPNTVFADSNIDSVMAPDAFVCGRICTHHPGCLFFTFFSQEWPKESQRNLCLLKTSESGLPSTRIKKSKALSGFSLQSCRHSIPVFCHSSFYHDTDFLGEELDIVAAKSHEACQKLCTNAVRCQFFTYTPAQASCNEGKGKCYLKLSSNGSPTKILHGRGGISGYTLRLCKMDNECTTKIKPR

What is called IC50 is the concentration needed to halve the response being measured. By Kd is commonly meant the concentration at which binding is half-saturated. Take `O=c1oc2cc(OCCCCn3cc(COc4ccc(-c5c(-c6ccccc6)c6cc(Cl)cc(Cl)c6oc5=O)cc4)nn3)ccc2c(-c2ccccc2)c1-c1ccc(OS(=O)(=O)O)cc1` [3g]: at factor XIa, the “selectivity for thrombin in comparison to factor XIa” value was ~ 150 fold. The concentration for half-maximal inhibition (IC50) at factor XIa (pH 7.4, 37 °C, read-out: IC50 against factor XIa) was greater than 30000 nM. The ΔFMAX in experiment [1] (loss in fluorescence at saturation) is recorded as ~ 28%. Also, binding in experiment [1] (pH 7.4, λEX 490 nm, λEM 525 nm, quadratic binding equation) was put at a Kd of 143 ± 14 nM. Moreover, in experiment [2] (90% saturation of thrombin, pH 7.4, 25 °C, thrombin alone 2.37 ± 0.14), the “slope of iodide quenching (Stern-Volmer, KSV)” value was found to be 1.19 ± 0.06 M⁻¹. For the same compound, the “reduction of iodide quenching of f FPRCK-thrombin” value in experiment [2] (90% saturation, versus thrombin alone) is ~ 50%. Moreover, at thrombin (at 100% saturation of thrombin, pH 7.2, 25 °C, thrombin alone 2476 ± 228), the “kINT, second order rate constant of antithrombin inhibition of thrombin–3g complex” value amounted to 821 ± 198 M⁻¹ s⁻¹. The “proteolytic activity of thrombin–3g complex” value on thrombin (kINT in the absence of 3g equated with 100%) came to 33 ± 12%.
